These results are taken from patent publication US5696276A, “Process for preparing 5,8-dihydroxynaphthoquinone derivatives, novel 5,8-dihydroxynaphthoquinone derivatives and their use as anticancer agent” (Kuhnil Pharmaceutical Co., Ltd., priority 1993, dated 1997).

The subject of test [1] is S-180 sarcoma cells. Put plainly: Animal experiment using Sarcoma S-180 cells (survival of mouse). The class given is in vivo, male ICR mouse. Particulars: ip, S-180 ICR mouse, intraperitoneal, 7 to 8 injections; for responders at 10 µmol/kg / response vs control in vivo at 10 µmol/kg: daily dose 10 μmole (mg/kg/day given per compound); for responders at 15 µmol/kg / response vs control in vivo at 15 µmol/kg: daily dose 15 μmole (mg/kg/day given per compound). The protocol:
In this experiment, healthy male ICR mouse weighing 20 to 25 g were used as test animal and were fed with water and feed without any restriction in the chamber controlled at the temperature of 23° to 24° C. As the feed, the antibiotic-free feed for mouse was used.
S-180 cells which were incubated for 7 days within abdominal cavity of ICR mouse were separated together with ascites. To the separated cells was added sterilized cold physiological saline and the mixture was centrifuged with 400×g for 2 minutes to separate the cell precipitate. The separated cell precipitate was suspended again in sterilized cold physiological saline and then centrifuged to remove the supernatant. Only S-180 cells were taken, excluding any red bllod cells incorporated therein, washed three times with the same method as above, and then suspended to obtain the cell suspension in concentration of 10^7 cells/ml by counting the number of cells with a haemacytometer. Each 0.1 ml of this cell suspension was transplanted in an abdominal cavity.
After 24 hours from the transplantation, mouse were divided so that each group contains 8 to 9 mouse. The test sample was dissolved in a predetermined amount of dimethylsulfoxide to prepare the stock solution which was stored at 4° C. 30 μl of the stock solution was taken and then mixed with 1.5 ml of physiological saline. 0.1 ml of this mixture was intraperitoneally injected to the test animal. To the control group, 2% dimethylsulfoxide-physiological saline solution was injected. Meanwhile, doxorubicin which is used as the comparative drug was dissolved in 2% dimethylsulfoxide-physiological saline solution and then injected in an amount of 0.5 mg(titer)/kg. The schedule for injection comprises a total of 7 to 8 injections in the manner that after the transplantation of cancer cells 0.1 ml of the test sample per a day is administered for 2 to 4 days followed by the rest for one day. The survival rate was calculated on the basis of the date on which all of one control group is died (approximately 18 to 20 days). The survival rate (T/C, %) was calculated by the following equation as proposed in NIC's protocol: [formula]

Test [2] concerns L1210 cells. Put plainly: Cytotoxic activity against L1210 cells. The following applies: Mus musculus; L1210 cells, 48 hours, 37° C.; read-out: ED50, cytotoxic activity against L1210. The class given is cell-based. The protocol:
To obtain L1210 cells in a logarithmic phase for cytotoxic activity test, in a 250 ml Erlenmeyer flask with a screw cap including Fisher medium warmed to 36° to 37° C. L1210 cells were adjusted to a concentration of 2-3×10^5 cells/ml and then cultured, before 24 hours from the beginning of experiment. Then, the culture solution thus obtained was suspended to prepare a L1210 cell suspension having a concentration of about 0.8-1.0×10^6 cells/ml. Test sample was dissoved in ethanol or dimethylsulfoxide in a certain concentration just before the experiment. 0.1 ml of the sample solution was diluted 10 times with 0.9 ml of a fresh medium. To each screw-capped test tube were added 100, 50, 25 μl, respectively, of the sample dilutions and then added 5 ml of the cell suspension (5×10^4 cells/ml) prepared above to use as the test group. To the test tubes for the control group (2√n: n=number of the samples), only 5 ml of the cell suspension was added. All test tubes were cultured for 48 hours in a CO2 incubator at 37° C. and then the number of cells was counted using a haemacytometer.
(§1) The ED50 value is defined as a concentration (μg/ml) of the sample which inhibits the growth of cancer cells by 50% of the control group and determined according to a method described in NIC's mannual (NIC=National Cancer Institue, U.S.A.). The growth rate Y(%) of cells in the presence of the test sample in each concentration was calculated according to the followign equation: […]
(§2) In the above equation, T means the average cell number per ml in the test group after incubation for 48 hours in the presence of the test samples in each concentration, C means the average cell number per ml in the control group after incubation for 48 hours, and Co means the average cell number per ml in the control group at the beginning of incubation. The Y(%) value at each concentration and log10 value of each concentration were obtained and the regression curve was constructed according to the following equation from those obtained values. In this case, when all the Y(%) value obtained at each concentration is greater than 55% or lower than 45%, the experiment was repeatedly conducted.
(§3) To construct the regression curve Y=A+BX the values A and B were obtained using the following equation. [formula]
(§4) In the above, the value N is the number of selected points which is greater than 2 and lower than, or identical with, the number of cencentration of the test sample, Xi is log(concentration) i, and Yi is the growth ratio at (concentration)i. The value of ED50 was obtained for those obtained slope and intercept.

In test [3] the test system is A549 cancer cells. Put plainly: Cytotoxic activity against A549 cancer cells (sulforhodamin B method). The class given is cell-based. Particulars: Homo sapiens; A549 cells, SRB method, 48 hours; read-out: ED50, cytotoxic activity against A549. The protocol:
The cytotoxic activity against A549 cancer cells was determined using a method for measuring sulforhodamin B (SRB), which was developed in the year 1989 by NIC for measuring anticancer activity of the drug in vitro. For the experiment, cells under subculturing were separated from the attached surface with trypsin-CDTA solution and then dispensed into a 24-well flat-bottom microplate (Falcon) so that the number of cells per well is 8×10^4 (A549). The microplate was incubated in a CO2 incubator for 24 hours to attach the dispensed cells to bottom. The medium was removed with aspirator. Then, 100 μl of the solution of the test compounds diluted in a log-dose of 6 kinds of concentration was added to each well containing cells, in a multiple of 3. The microplate was incubated for further 48 hours. In addition, the diluted solution of the test compounds above was filtered through a 0.22 μm filter, before addition to the cells, to keep the experiment under sterilized condition. The cells were incubated with the test compounds for 48 hours and then the medium was removed from each well. 100 μl of 10% trichloroacetic acid (TCA) was added to each well and then the plate was allowed to stand at 4° C. for one hour to fix the cells to the bottom of plate. After fixing the cells, the plate was washed 5 to 6 times with water to completely remove any remaining TCA solution and then dried at room temperature until water is no longer present. To the completely dried plate was added the dying solution of 0.4% SRB dissolved in 1% acetic acid in an amount of 250 μl per well to stain the cells for 30 minutes and then the plate was washed again 5 to 6 times with 1% acetic acid solution to remove the remaining SRB which is not bound to the cells. The stained cell plate was dried again at room temperature. Then, the dying solution was carefully dissolved in a certain amount of 10 mM Tris so that the O.D. value in the control group at 520 nm is 0.8-1.0 Å (optical density), and the optical density at 520nm was determined. The ED50 value was obtained from the determined optical density. To calculate the activity of the drug against cancer cells, the number of cells (Tz) at the beginning of the addition of drug, the number of cells (C) after incubation with the medium in the absence of drug for 48 hours and the number of cells (T) after incubation in the presence of drugs at each concentration for 48 hours were determined.
The anticancer activity of the test compounds was determined form the following equations. Specifically, in the […] the equation (T-Tz)/(C-Tz)×100 was used and in the case of Tz<T the equation (T-Tz)/Tz×100 was used. Then the IC50 value wich is the concentration of drug which inhibits the growth of cancer cells by 50% was calcualted from the above calculated values using a data regressive function of LOTUS programme and the cytotoxic activities of the test compounds were compared with each other.

Test [4] deals with K-562 cells. Put plainly: Cytotoxic activity against K-562 cells. Particulars: Homo sapiens; K562 cells, 48 hours, 37° C.; read-out: ED50, cytotoxic activity against K562. The format is cell-based. The protocol: As in the test for the cytotoxic activity against L1210 cells, the test samples were dissoved in ethanol or dimethylsulfoxide in a certain concentration. 0.1 ml of the sample solution was mixed with 0.9 ml of a fresh medium to prepare the dilutions. To each two test tubes having a screw cap were added 100, 50, 25 μl, respectively, of the sample dilutions by means of a micropipet. To each test tube for the test group and the control group (2√n: n=number of the samples) was added 5 ml of the dilutions of HL-60 cells and K-562 cells which were cultured and activated before 24 hours from the beginning of experiment and then diluted in a concentration of 1×10^5 cells/mi. All test tubes were cultured for 48 hours in a CO2 incubator at 37° C. and then the number of cells was counted using a haemacytometer.
as §1, §2, §3, §4

Setting [5] is: 1200 h, read-out: Number of mouse survived for 50 days (converted).

Each structure is given as a SMILES string. In brackets after ≈: the same amount, converted by molar mass.

For the molecule `CC(C)CCC(O)C1=CC(=O)c2c(O)ccc(O)c2C1=O` (centres unmarked) [2-(1-hydroxy-4-methylpentyl)-5,8-dihydroxy-1,4-naphthoquinone, reference compound], the responders at 5 µmol/kg in test [1] (1200 h, daily dose 5 μmole (mg/kg/day given per compound), read-out: Number of mouse survived for 50 days (converted)) is 0%. Further, the response vs control in vivo at 5 µmol/kg in test [1] (daily dose 5 μmole (mg/kg/day given per compound), read-out: T/C) is 120%. Besides, the IC50 amounted to 0.05 µg/mL (≈ 0.172 µM) in test [2], 0.9 µg/mL (≈ 3.1 µM) in test [3] and 0.01 µg/mL (≈ 0.0344 µM) in test [4].

With `COc1ccc(OC)c2c1C(=O)C=C(C(O)CCC(C)C)C2=O` (centres unmarked) [2-(1-hydroxy-4-methylpentyl)-5,8-dimethoxy-1,4-naphthoquinone], the responders at 10 µmol/kg in test [1] (setting [5]) is 0%. The response vs control in vivo at 10 µmol/kg in test [1] (read-out: T/C) came out at 120%. Further, the IC50 in test [2] turned out to be 0.02 µg/mL (≈ 0.0628 µM); in test [3] it was 2.2 µg/mL (≈ 6.91 µM); in test [4], 0.9 µg/mL (≈ 2.83 µM).

Turning to `CCCCCCCCCCCCC(O)C1=CC(=O)c2c(O)ccc(O)c2C1=O` (centres unmarked) [2-(1-hydroxytridecyl)-5,8-dihydroxy-1,4-naphthoquinone], the responders at 10 µmol/kg in test [1] (setting [5]) is 0%. Also, the response vs control in vivo at 10 µmol/kg in test [1] (read-out: T/C) was found to be 113%. Further, the IC50 was 0.3 µg/mL (≈ 0.772 µM) in test [2], 4.4 µg/mL (≈ 11.3 µM) in test [3] and 0.4 µg/mL (≈ 1.03 µM) in test [4].

`COC(CCC(C)C)C1=CC(=O)c2c(O)ccc(O)c2C1=O` (centres unmarked) [2-(1-methoxy-4-methylpentyl)-5,8-dihydroxy-1,4-naphthoquinone]: in test [1] (setting [5]), the responders at 10 µmol/kg is 0%. Further, in test [1] (read-out: T/C), the response vs control in vivo at 10 µmol/kg was found to be 126%. Also, the results for the IC50 in test [2], in test [3] and in test [4] were 0.05 µg/mL (≈ 0.164 µM), 1.5 µg/mL (≈ 4.93 µM) and 0.07 µg/mL (≈ 0.23 µM), respectively.

Regarding `CCCCCCCC(=O)OC(CCC(C)C)C1=CC(=O)c2c(O)ccc(O)c2C1=O` (centres unmarked) [2-(1-octanoyloxy-4-methylpentyl)-5,8-dihydroxy-1,4-naphthoquinone], in test [1] (setting [5]), the responders at 15 µmol/kg was 0%. In addition, in test [1] (read-out: T/C), the response vs control in vivo at 15 µmol/kg was found to be 131%. Also, the values for the IC50 in test [2], in test [3] and in test [4] were 0.5 µg/mL (≈ 1.2 µM), 1.7 µg/mL (≈ 4.08 µM) and 0.6 µg/mL (≈ 1.44 µM), respectively.

Regarding `CCCCCCCC(=O)OC(CCCCC)C1=CC(=O)c2c(O)ccc(O)c2C1=O` (centres unmarked) [2-(1-octanoyloxyhexyl)-5,8-dihydroxy-1,4-naphthoquinone], the responders at 15 µmol/kg in test [1] (setting [5]) was 0%. In addition, the response vs control in vivo at 15 µmol/kg in test [1] (read-out: T/C) was 95%. The IC50 in test [2] stood at 0.2 µg/mL (≈ 0.48 µM); in test [3], 2.1 µg/mL (≈ 5.04 µM); in test [4], 0.3 µg/mL (≈ 0.72 µM).

As for `CC(C)CCOC(CCC(C)C)C1=CC(=O)c2c(O)ccc(O)c2C1=O` (centres unmarked) [2-[1-(3-methylbutoxy)-4-methylpentyl]-5,8-dihydroxy-1,4-naphthoquinone], in test [1] (setting [5]), the responders at 15 µmol/kg is 0%. In addition, in test [1] (read-out: T/C), the response vs control in vivo at 15 µmol/kg amounted to 186%. Moreover, the IC50 stood at 0.2 µg/mL (≈ 0.555 µM) in test [2], 1.1 µg/mL (≈ 3.05 µM) in test [3] and 0.09 µg/mL (≈ 0.25 µM) in test [4].

Consider `CC/C=C/CC(=O)OC(CCC(C)C)C1=CC(=O)c2c(O)ccc(O)c2C1=O` (stereo not drawn) [2-[1-(3-trans-hexenoyloxy)-4-methylpentyl]-5,8-dihydroxy-1,4-naphthoquinone], for which the responders at 10 µmol/kg in test [1] (setting [5]) was 0%. Further, in test [1] (read-out: T/C), the response vs control in vivo at 10 µmol/kg amounted to 160%. The IC50 amounted to 0.05 µg/mL (≈ 0.129 µM) in test [2], 2.4 µg/mL (≈ 6.21 µM) in test [3] and 0.2 µg/mL (≈ 0.518 µM) in test [4].

With `CC/C=C/CC(=O)OC(CCCCCCCCC)C1=CC(=O)c2c(O)ccc(O)c2C1=O` (stereo not drawn) [2-[1-(3-trans-hexenoyloxy)-decyl]-5,8-dihydroxy-1,4-naphthoquinone], the responders at 10 µmol/kg in test [1] (setting [5]) is 0%. Moreover, in test [1] (read-out: T/C), the response vs control in vivo at 10 µmol/kg came to 130%. Also, the IC50 in test [2] came out at 0.6 µg/mL (≈ 1.36 µM); in test [3], 7.1 µg/mL (≈ 16 µM); in test [4], 0.6 µg/mL (≈ 1.36 µM).

On to `CC/C=C/CC(=O)OC(CCCCC)C1=CC(=O)c2c(O)ccc(O)c2C1=O` (stereo not drawn) [2-[1-(3-trans-hexenoyloxy)-hexyl]-5,8-dihydroxy-1,4-naphthoquinone], for which, in test [1] (setting [5]), the responders at 10 µmol/kg is 0%. The response vs control in vivo at 10 µmol/kg in test [1] (read-out: T/C) was found to be 105%. For the same molecule, the figures for the IC50 in test [2], in test [3] and in test [4] were 0.2 µg/mL (≈ 0.518 µM), 1.5 µg/mL (≈ 3.88 µM) and 0.2 µg/mL (≈ 0.518 µM), respectively.
